Data published in PubChem BioAssay (NCI).
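Following 48 hours of exposure in 96-well plates, responses at five concentrations were used to interpolate endpoints linearly. TGI denotes the concentration required for complete inhibition of growth.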

Legend:
Test in all cases: NCI tumour cell line growth inhibition, 48 h
[1] = system: SN12C renal
[2] = system: U251 CNS
[3] = system: SF-268 CNS
[4] = system: PC-3 prostate
[5] = system: MOLT-4 leukemia
[6] = system: COLO 205 colon
[7] = system: CAKI-1 renal
[8] = system: MCF7 breast
[9] = system: NCI-H460 lung
[10] = system: NCI-H23 lung
[11] = system: SW-620 colon
[12] = system: SF-295 CNS
[13] = system: A549 NSCLC
[14] = system: UO-31 renal
[15] = system: SR leukemia
[16] = system: CCRF-CEM leukemia
[17] = system: HL-60(TB) leukemia
[18] = system: HS 578T breast
[19] = system: TK-10 renal
[20] = system: MDA-MB-231 breast
[21] = system: K-562 leukemia
[22] = system: LOX IMVI melanoma
[23] = system: T-47D breast
[24] = system: HCT-116 colon
[25] = system: MDA-N
[26] = system: HT29 colon
[27] = system: DU-145 prostate
[28] = system: SK-MEL-5 melanoma
[29] = system: ACHN renal
[30] = system: NCI-H226 lung
[31] = system: M14 melanoma
[32] = system: NCI/ADR-RES ovarian
[33] = system: HOP-62 NSCLC
[34] = system: RXF 393 renal
[35] = system: SF-539 CNS
[36] = system: BT-549 breast
[37] = system: SK-OV-3 ovarian
[38] = system: SNB-75 CNS
[39] = system: NCI-H522 lung
[40] = system: SNB-19 CNS
[41] = system: HCT-15 colon
[42] = system: UACC-257 melanoma
[43] = system: SK-MEL-2 melanoma
[44] = system: HOP-92 NSCLC
[45] = system: HCC-2998 colon
[46] = system: OVCAR-8 ovarian
[47] = system: KM12 colon
[48] = system: EKVX NSCLC
[49] = system: OVCAR-4 ovarian
[50] = system: UACC-62 melanoma
[51] = system: A498 renal
[52] = system: OVCAR-3 ovarian
[53] = system: OVCAR-5 ovarian
[54] = system: MALME-3M melanoma
[55] = system: IGROV1 ovarian
[56] = system: SK-MEL-28 melanoma
[57] = system: 786-0 renal
[58] = system: MDA-MB-435
[59] = system: RPMI-8226 leukemia

Compound: CN(CCCNC(=O)c1cn(C)c2c1ccc1cc(Cl)c(Cl)cc12)CCCNC(=O)c1cn(C)c2c1ccc1cc(Cl)c(Cl)cc12
- TGI [1]: 32.3 µM
- TGI [2]: 11.4 µM
- TGI [3]: 34 µM
- TGI [4]: 27.4 µM
- TGI [5]: 30.3 µM
- TGI [6]: 9.58 µM
- TGI [7]: 27.1 µM
- TGI [8]: 19.6 µM
- TGI [9]: 29.8 µM
- TGI [10]: 31.4 µM
- TGI [11]: 19.1 µM
- TGI [12]: 38.3 µM
- TGI [13]: 32.4 µM
- TGI [14]: 39.6 µM
- TGI [15]: 16.5 µM
- TGI [16]: 38.7 µM
- TGI [17]: 8.32 µM
- TGI [18]: 27.6 µM
- TGI [19]: 37.4 µM
- TGI [20]: 29.8 µM
- TGI [21]: 26.2 µM
- TGI [22]: > 43.3 µM
- TGI [23]: 36.2 µM
- TGI [24]: 31.2 µM
- TGI [25]: 36 µM
- TGI [26]: 29.4 µM
- TGI [27]: 31.6 µM
- TGI [28]: 28.7 µM
- TGI [29]: 27.2 µM
- TGI [30]: 47.9 µM
- TGI [31]: 27.5 µM
- TGI [32]: 33.1 µM
- TGI [33]: > 57.7 µM
- TGI [34]: 16.7 µM
- TGI [35]: 32.1 µM
- TGI [36]: 33.3 µM
- TGI [37]: 30.7 µM
- TGI [38]: 25.6 µM
- TGI [39]: 31.5 µM
- TGI [40]: 17.9 µM
- TGI [41]: 27.5 µM
- TGI [42]: 52.4 µM
- TGI [43]: 31.5 µM
- TGI [44]: 33.4 µM
- TGI [45]: 18.6 µM
- TGI [46]: 31.2 µM
- TGI [47]: 20.8 µM
- TGI [48]: 31.5 µM
- TGI [49]: 25.3 µM
- TGI [50]: 31.7 µM
- TGI [51]: 28 µM
- TGI [52]: > 54.9 µM
- TGI [53]: 31.2 µM
- TGI [54]: 31.8 µM
- TGI [55]: 25.5 µM
- TGI [56]: 42 µM
- TGI [57]: 49.4 µM
- TGI [58]: 26.4 µM

Compound: Nc1cc2c3c(cccc3c1)C(=O)N(c1ccc(OCCN3CCCCC3)cc1)C2=O
- TGI [1]: > 54.3 µM
- TGI [2]: 61.6 µM
- TGI [3]: 37.7 µM
- TGI [4]: 32.9 µM
- TGI [5]: 35.7 µM
- TGI [6]: 35.7 µM
- TGI [7]: 32.4 µM
- TGI [8]: 36.3 µM
- TGI [10]: 30.2 µM
- TGI [11]: 48.5 µM
- TGI [12]: 33.4 µM
- TGI [13]: 28.2 µM
- TGI [14]: 24.1 µM
- TGI [15]: 36.6 µM
- TGI [16]: 88.3 µM
- TGI [17]: 26.5 µM
- TGI [18]: 63.4 µM
- TGI [19]: 31.3 µM
- TGI [20]: 31.5 µM
- TGI [21]: 29.8 µM
- TGI [59]: 41.7 µM
- TGI [22]: 35.4 µM
- TGI [23]: 46.6 µM
- TGI [24]: 51.7 µM
- TGI [25]: 41.2 µM
- TGI [26]: 31.9 µM
- TGI [27]: 33.5 µM
- TGI [28]: 35.2 µM
- TGI [29]: 29.4 µM
- TGI [30]: 42.1 µM
- TGI [31]: 32.3 µM
- TGI [32]: 40.9 µM
- TGI [33]: 31.8 µM
- TGI [34]: 35.7 µM
- TGI [35]: 27.9 µM
- TGI [36]: 38.4 µM
- TGI [37]: 31.7 µM
- TGI [38]: 30.6 µM
- TGI [39]: 35.2 µM
- TGI [40]: 32.4 µM
- TGI [41]: 25.4 µM
- TGI [42]: 31.6 µM
- TGI [43]: 31.6 µM
- TGI [44]: 34.2 µM
- TGI [45]: 34 µM
- TGI [46]: 36.4 µM
- TGI [47]: 41.3 µM
- TGI [48]: 45.7 µM
- TGI [49]: 35.7 µM
- TGI [50]: 36.6 µM
- TGI [51]: 31.9 µM
- TGI [52]: 30.7 µM
- TGI [53]: 44 µM
- TGI [54]: 19.8 µM
- TGI [55]: 34.4 µM
- TGI [56]: 44.8 µM
- TGI [57]: 43.3 µM
- TGI [58]: 55.7 µM
